Molecules are shown by their SMILES. Where a name gives a salt, the structure may show the parent alone. Bounds are passed on as bounds.

The test system of test [1] is Staphylococcus aureus MW2 (mecA+). The test is described as follows: IC50 (growth, competition assay). Particulars: cefoxitin: subinhibitory. Put shortly: (§1)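 Signals from DsRed (540/590) and GFP (485/520) were scaled on every plate between single-strain control medians, with No Treatment then set to 0.5. The cells were a 1:1 mix of pre-induced fluorescent S. aureus MW2 strains with and without the resistance gene, grown unshaken for 20 h at 37 °C and 90% humidity in LB in 1536-well plates under a subinhibitory drug dose set each day. Each strain's IC50 was defined as the dose halving the No Treatment signal, or the maximal signal.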

Test [2] concerns Staphylococcus aureus MW2 delta-mecA (mecA-). The test is described as follows: IC50 (growth, competition assay). The following applies: cefoxitin: subinhibitory. Put shortly:
as §1

With `OCCN1CCN(CC/C=C2/c3ccccc3Sc3ccc(C(F)(F)F)cc32)CC1` [cis-(Z)-Flupenthixol dihydrochloride], the concentration for half-maximal inhibition (IC50) in test [1] (fluorescent label: DsRed) is 34.6 µM; in test [1] (fluorescent label: GFP) it was 42.6 µM; in test [2] (fluorescent label: DsRed), 12.9 µM; in test [2] (fluorescent label: GFP) it was less than 9.85 µM.
On the same counts, the results for `Cc1onc(-c2c(Cl)cccc2Cl)c1C(=O)N[C@@H]1C(=O)N2[C@@H]1SC(C)(C)[C@@H]2C(=O)O` [Dicloxacillin Sodium] are less than 9.85 µM, less than 9.85 µM, less than 9.85 µM and less than 9.85 µM.
The corresponding values for `CC[C@H](C)C[C@H](C)CCCCCCCCC(=O)N[C@H]1C[C@@H](O)[C@@H](NCCN)NC(=O)[C@@H]2[C@@H](O)CCN2C(=O)[C@H]([C@H](O)CCN)NC(=O)[C@H]([C@H](O)[C@@H](O)c2ccc(O)cc2)NC(=O)[C@@H]2C[C@@H](O)CN2C(=O)[C@H]([C@@H](C)O)NC1=O` [Caspofungin acetate] are 36.7 µM, 42.1 µM, 14.4 µM and less than 9.85 µM.
The corresponding values for `CC(C)c1cc2c(c(O)c1O)[C@@]1(C(=O)O)CCCC(C)(C)[C@@H]1CC2` [CARNOSIC ACID] are 27.2 µM, 38.8 µM, less than 9.85 µM and less than 9.85 µM.
Regarding `NCCOB(c1ccccc1)c1ccccc1` [AMINOETHOXYDIPHENYLBORANE], the half-inhibitory concentration (IC50) in test [1] (fluorescent label: DsRed) was found to be 25.6 µM; in test [1] (fluorescent label: GFP) it was 25.1 µM; in test [2] (fluorescent label: DsRed), 11.1 µM; in test [2] (fluorescent label: GFP) it was 11.7 µM.
The corresponding values for `CSc1ccc2c(c1)C(N1CCN(C)CC1)Cc1ccccc1S2` (configuration not stated) [METITEPINE MESYLATE] are 56.9 µM, 84.8 µM, 30.8 µM and 17.8 µM.
The corresponding values for `Clc1ccc(COC(Cn2ccnc2)c2ccc(Cl)cc2Cl)c(Cl)c1` (configuration not stated) [MONISTAT] are less than 9.85 µM, less than 9.85 µM, less than 9.85 µM and less than 9.85 µM.
On to `C/C=C(/C(=C/C)c1ccc(O)cc1)c1ccc(O)cc1` [ESTRAGUARD], for which the IC50 in test [1] (fluorescent label: DsRed) was 30.7 µM; in test [1] (fluorescent label: GFP) it was 52.9 µM; in test [2] (fluorescent label: DsRed) it was 18.5 µM; in test [2] (fluorescent label: GFP) it was less than 9.85 µM.
Turning to `CC(C)CCC[C@@H](C)[C@H]1CC[C@H]2[C@@H]3CC[C@H]4CC(=O)CC[C@]4(C)[C@H]3CC[C@]12C` [CHOLESTAN-3-ONE], the IC50 is more than 150 µM in test [1] (fluorescent label: DsRed), more than 150 µM in test [1] (fluorescent label: GFP), 17.3 µM in test [2] (fluorescent label: DsRed) and 31.9 µM in test [2] (fluorescent label: GFP).
With `C[C@H]1COC2=C1C(=O)C(=O)c1c2ccc2c1CCCC2(C)C` [CRYPTOTANSHINONE], the IC50 is 13 µM in test [1] (fluorescent label: DsRed), 15.7 µM in test [1] (fluorescent label: GFP), 11.3 µM in test [2] (fluorescent label: DsRed) and 10.5 µM in test [2] (fluorescent label: GFP).
On the same counts, the results for `O=C(O)c1ccc(N2C(=O)/C(=C\c3ccc(-c4ccc([N+](=O)[O-])cc4)o3)C=C2c2ccccc2)cc1` [4E1RCat] are 54.5 µM, 78.7 µM, 18 µM and less than 9.85 µM.
As to `CCN(CC)CCN(Cc1ccc(-c2ccc(C(F)(F)F)cc2)cc1)C(=O)Cn1c(SCc2ccc(F)cc2)nc(=O)c2c1CCC2`, the 50% inhibitory concentration (IC50) is less than 9.85 µM in test [1] (fluorescent label: DsRed), 10.2 µM in test [1] (fluorescent label: GFP), less than 9.85 µM in test [2] (fluorescent label: DsRed) and less than 9.85 µM in test [2] (fluorescent label: GFP).
With `O=C(Nc1ncc(SCCN2CCCC2)s1)[C@]1(c2ccc(S(=O)(=O)C3CC3)cc2)C[C@H]1C1CCCCC1`, the IC50 in test [1] (fluorescent label: DsRed) was 111 µM; in test [1] (fluorescent label: GFP), more than 150 µM; in test [2] (fluorescent label: DsRed) it was 74.5 µM; in test [2] (fluorescent label: GFP) it was 34.4 µM.
For `CC1COc2c(N3CCN(C)CC3)c(F)cc3c(=O)c(C(=O)O)cn1c23` (configuration not stated) [FLOXIN], the IC50 in test [1] (fluorescent label: DsRed), in test [1] (fluorescent label: GFP), in test [2] (fluorescent label: DsRed) and in test [2] (fluorescent label: GFP) was less than 9.85 µM each time.
`CCCCCCCCCCCCCCC[C@H](O)[C@H](N)CO` (racemic) [DL-erythro-Dihydrosphingosine]: the IC50 in test [1] (fluorescent label: DsRed) was 15.1 µM; in test [1] (fluorescent label: GFP), 10.4 µM; in test [2] (fluorescent label: DsRed) it was less than 9.85 µM; in test [2] (fluorescent label: GFP), less than 9.85 µM.
As to `CCn1cc(C(=O)O)c(=O)c2cc(F)c(N3CCNCC3)cc21` [Norfloxacin (Norxacin)], the half-maximal inhibitory concentration (IC50) is 0.816 µM in test [1] (fluorescent label: DsRed), 0.772 µM in test [1] (fluorescent label: GFP), less than 0.498 µM in test [2] (fluorescent label: DsRed) and less than 0.498 µM in test [2] (fluorescent label: GFP).
`CC(=O)NC[C@H]1CN(c2ccc(N3CCOCC3)c(F)c2)C(=O)O1` [Linezolid]: the IC50 in test [1] (fluorescent label: DsRed), in test [1] (fluorescent label: GFP), in test [2] (fluorescent label: DsRed) and in test [2] (fluorescent label: GFP) was less than 9.85 µM in each case.
Regarding `COC(=O)Nc1nc2cc(C(=O)c3cccs3)ccc2[nH]1` [Nocodazole], the IC50 in test [1] (fluorescent label: DsRed) was 24.4 µM; in test [1] (fluorescent label: GFP) it was 29 µM; in test [2] (fluorescent label: DsRed), less than 9.85 µM; in test [2] (fluorescent label: GFP) it was less than 9.85 µM.
On to `CO/N=C(\C(=O)N[C@@H]1C(=O)N2C(C(=O)O)=C(CSc3nc(=O)c(O)nn3C)CS[C@H]12)c1csc(N)n1` [Ceftriaxone sodium], for which the IC50 in test [1] (fluorescent label: DsRed) was 14.9 µM; in test [1] (fluorescent label: GFP) it was 14.9 µM; in test [2] (fluorescent label: DsRed), less than 9.85 µM; in test [2] (fluorescent label: GFP), less than 9.85 µM.
Regarding `COc1cc([C@@H]2c3cc4c(cc3[C@@H](O[C@@H]3O[C@@H]5CO[C@@H](c6cccs6)O[C@H]5[C@H](O)[C@H]3O)[C@H]3COC(=O)[C@H]23)OCO4)cc(OC)c1O` [VUMON], the half-maximal inhibitory concentration (IC50) in test [1] (fluorescent label: DsRed), in test [1] (fluorescent label: GFP), in test [2] (fluorescent label: DsRed) and in test [2] (fluorescent label: GFP) was less than 9.85 µM each time.
Take `C[C@H]1c2cccc(O)c2C(=O)C2=C(O)[C@]3(O)C(=O)C(C(N)=O)=C(O)[C@@H](N(C)C)[C@@H]3[C@@H](O)[C@@H]21` [PERIOSTAT]: the IC50 in test [1] (fluorescent label: DsRed), in test [1] (fluorescent label: GFP), in test [2] (fluorescent label: DsRed) and in test [2] (fluorescent label: GFP) was less than 9.85 µM each time.
In the case of `CCCCCCCc1ccc(CCc2cccc(O)c2C(=O)O)cc1` [MG 149], the IC50 in test [1] (fluorescent label: DsRed) is 13.6 µM; in test [1] (fluorescent label: GFP) it was 14.5 µM; in test [2] (fluorescent label: DsRed), less than 9.85 µM; in test [2] (fluorescent label: GFP) it was less than 9.85 µM.
On to `CN1CCN(CCCN2c3ccccc3Sc3ccc(Cl)cc32)CC1` [COMPAZINE], for which the IC50 in test [1] (fluorescent label: DsRed) was 139 µM; in test [1] (fluorescent label: GFP), 56.7 µM; in test [2] (fluorescent label: DsRed), 34 µM; in test [2] (fluorescent label: GFP), 56.6 µM.
With `Oc1c(I)cc(Cl)c2cccnc12` [VIOFORM], the half-inhibitory concentration (IC50) in test [1] (fluorescent label: DsRed) is 15 µM; in test [1] (fluorescent label: GFP), 14.9 µM; in test [2] (fluorescent label: DsRed) it was less than 9.85 µM; in test [2] (fluorescent label: GFP), less than 9.85 µM.
For `O=c1[nH]nc(Sc2ncc([N+](=O)[O-])s2)n1-c1ccc2c(c1)OCCO2` [BI 78D3], the IC50 is less than 9.85 µM in test [1] (fluorescent label: DsRed), 11.9 µM in test [1] (fluorescent label: GFP), less than 9.85 µM in test [2] (fluorescent label: DsRed) and less than 9.85 µM in test [2] (fluorescent label: GFP).
Regarding `CCCCCCCCOc1ccccc1C(=O)Nc1ccc(C(=O)OCC[N+](C)(CC)CC)cc1` [Otilonium Bromide], the half-maximal inhibitory concentration (IC50) in test [1] (fluorescent label: DsRed), in test [1] (fluorescent label: GFP), in test [2] (fluorescent label: DsRed) and in test [2] (fluorescent label: GFP) was less than 9.85 µM throughout.
For the compound `C[C@H]1[C@H](C)CC[C@]2(C(=O)O)CC[C@]3(C)C(=CC[C@@H]4[C@@]5(C)C[C@@H](O)[C@H](O)[C@@](C)(CO)[C@@H]5[C@H](O)C[C@]43C)[C@H]12` [MADECASSIC ACID], the IC50 in test [1] (fluorescent label: DsRed) amounted to 53.8 µM; in test [1] (fluorescent label: GFP), 54.5 µM; in test [2] (fluorescent label: DsRed) it was 47.8 µM; in test [2] (fluorescent label: GFP) it was 30 µM.
The corresponding values for `CC=CC1=C(C(=O)O)N2C(=O)[C@@H](NC(=O)[C@H](N)c3ccc(O)cc3)[C@H]2SC1` [CEFZIL] are 113 µM, 109 µM, less than 9.85 µM and less than 9.85 µM.

As a reminder, the IC50 is the concentration at which inhibition is half-maximal. Higher therefore signals lower potency.

The record behind these values is the supplement of paper PMC7695840.
